Results as given in patent publication US10766869B2, “Triazoles for the treatment of demyelinating dieases” (Vertex Pharmaceuticals Incorporated, priority 2015, dated 2020).

Tested on: primary rat mixed cortical cells
Test: In vitro myelination assay (MBP positive myelin strands, fold myelin pixels above background)
Type: cell-based
Details: Rattus norvegicus, relative to baseline of no added compound; for fold induction at 1 µM: 1.0 μM compound, read-out: Fold myelin pixels above background, 1.0 μM; for fold induction at 10 µM: 10.0 μM compound, read-out: Fold myelin pixels above background, 10.0 μM
Method in brief: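 Mixed cortical culture, P1 rat, 87,500-95,000 cells/well; compound present from seeding, refreshed days 6 and 10; 14 d, 37 °C, 5% CO2. Day 14: PFA fix, anti-MBP + Hoechst. Read-out: fold MBP myelin pixels over untreated, tested at 1.0 and 10.0 μM.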

SMILES | fold induction at 1 µM | fold induction at 10 µM
Cc1cc(Nc2ncn(-c3cc(F)cc(F)c3)n2)cc(N2CC(O)C2)c1 [Compound 355, 1-[3-[[1-(3,5-difluorophenyl)-1,2,4-triazol-3-yl]amino]-5-methyl-phenyl]azetidin-3-ol] | 10 to 100 | 100 to 1000
Cc1cc(Nc2ncn(-c3ccc(C(F)(F)F)cc3)n2)cc(N2CCCC2)c1 [Compound 356, N-(3-methyl-5-pyrrolidin-1-yl-phenyl)-1-[4-(trifluoromethyl)phenyl]-1,2,4-triazol-3-amine] | ≤ 1 | 10 to 100
FC(F)(F)c1cc(Nc2ncn(-c3cnccn3)n2)cc(N2CCOCC2)c1 [Compound 357, N-[3-morpholino-5-(trifluoromethyl)phenyl]-1-pyrazin-2-yl-1,2,4-triazol-3-amine] | 1 to 10 | 1 to 10
CC(C)c1cc(Nc2ncn(-c3cc(F)cc(F)c3)n2)cc(N2CCN(C3COC3)CC2)c1 [Compound 359, 1-(3,5-difluorophenyl)-N-[3-isopropyl-5-[4-(oxetan-3-yl)piperazin-1-yl]phenyl]-1,2,4-triazol-3-amine] | 1000 to 10000 | ≤ 1
Cc1cc(Nc2ncn(-c3cc(F)cc(F)c3)n2)cc(N2CCN(C)C(=O)C2)c1 [Compound 360, 4-[3-[[1-(3,5-difluorophenyl)-1,2,4-triazol-3-yl]amino]-5-methyl-phenyl]-1-methyl-piperazin-2-one] | 10 to 100 | 10 to 100
CS(=O)(=O)c1cc(Nc2ncn(-c3cccc(F)c3)n2)cc(N2CCN(C3COC3)CC2)c1 [Compound 361, 1-(3-fluorophenyl)-N-[3-methylsulfonyl-5-[4-(oxetan-3-yl)piperazin-1-yl]phenyl]-1,2,4-triazol-3-amine] | 100 to 1000 | ≤ 1
Cc1cc(Nc2ncn(-c3cc(F)cc(F)c3)n2)cc(N2CCNC(C)C2)c1 (centres unmarked) [Compound 362, 1-(3,5-difluorophenyl)-N-[3-methyl-5-(3-methylpiperazin-1-yl)phenyl]-1,2,4-triazol-3-amine] | 100 to 1000 | ≤ 1
Cc1cc(Nc2ncn(-c3ccccc3)n2)cc(C2COC2)c1 [Compound 363, N-[3-methyl-5-(oxetan-3-yl)phenyl]-1-phenyl-1,2,4-triazol-3-amine] | 1000 to 10000 | 100 to 1000
COCc1cc(-n2cnc(Nc3cc(C)cc(N4CCN(C5COC5)CC4)c3)n2)ncn1 [Compound 364, 1-[6-(methoxymethyl)pyrimidin-4-yl]-N-[3-methyl-5-[4-(oxetan-3-yl)piperazin-1-yl]phenyl]-1,2,4-triazol-3-amine] | 1 to 10 | 10 to 100
Cc1cc(Nc2ncn(-c3cc(F)cc(F)c3)n2)cc(N2CCN(C)CC2)n1 [Compound 365, N-[1-(3,5-difluorophenyl)-1,2,4-triazol-3-yl]-2-methyl-6-(4-methylpiperazin-1-yl)pyridin-4-amine] | 10 to 100 | ≤ 1
FC(F)(F)c1cc(Nc2ncn(-c3ccccc3)n2)cc(N2CCOCC2)c1 [Compound 366, N-[3-morpholino-5-(trifluoromethyl)phenyl]-1-phenyl-1,2,4-triazol-3-amine] | 1000 to 10000 | 1000 to 10000
CN1CCN(c2cc(Nc3ncn(-c4ccccc4)n3)cc(Cl)n2)CC1 [Compound 367, 2-chloro-6-(4-methylpiperazin-1-yl)-N-(1-phenyl-1,2,4-triazol-3-yl)pyridin-4-amine] | 100 to 1000 | 100 to 1000
CCc1cc(Nc2ncn(-c3cnccn3)n2)cc(N2CCN(C(=O)OC(C)(C)C)CC2)c1 [Compound 368, tert-butyl 4-[3-ethyl-5-[(1-pyrazin-2-yl-1,2,4-triazol-3-yl)amino]phenyl]piperazine-1-carboxylate] | 10 to 100 | 1 to 10
